Results from the supplement of paper PMC5662764.
± gives the standard deviation of the averaged measurements.

Key:
Test in all cases: normalised growth rate inhibition (GR value) relative to DMSO control (GR (1 = untreated growth, 0 = cytostasis, <0 = cytotoxic)); higher = less growth inhibition
Conditions in all cases: 72 h
[1] = system: MCF7
Summary of the method: (§1)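 Six breast cell lines were seeded in 384-well plates and dosed 24 h later with drugs at 0.04–10 µM for 72 h. Cells were stained with Hoechst 33342 and Fixable Far Red Dead Cell Stain, fixed in 3% formaldehyde and imaged on an Operetta; viable cells were counted in Columbus. Normalised growth rate inhibition was computed from counts relative to same-plate DMSO wells and a day-0 plate. Technical plate replicates (generally three) were averaged.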

[2] = system: MDAMB231
Summary of the method: as §1

[3] = system: SKBR3
Summary of the method: as §1

[4] = system: MCF10A
Summary of the method: as §1

[5] = system: HS578T
Summary of the method: as §1

[6] = system: BT20
Summary of the method: as §1

SMILES	normalised growth rate inhibition ([1]; 0.04 µM)	normalised growth rate inhibition ([1]; 0.12 µM)	normalised growth rate inhibition ([1]; 0.37 µM)	normalised growth rate inhibition ([1]; 1.11 µM)	normalised growth rate inhibition ([1]; 3.33 µM)	normalised growth rate inhibition ([1]; 10 µM)	normalised growth rate inhibition ([2]; 0.04 µM)	normalised growth rate inhibition ([2]; 0.12 µM)	normalised growth rate inhibition ([2]; 0.37 µM)	normalised growth rate inhibition ([2]; 1.11 µM)	normalised growth rate inhibition ([2]; 3.33 µM)	normalised growth rate inhibition ([2]; 10 µM)	normalised growth rate inhibition ([3]; 0.04 µM)	normalised growth rate inhibition ([3]; 0.12 µM)	normalised growth rate inhibition ([3]; 0.37 µM)	normalised growth rate inhibition ([3]; 1.11 µM)	normalised growth rate inhibition ([3]; 3.33 µM)	normalised growth rate inhibition ([3]; 10 µM)	normalised growth rate inhibition ([4]; 0.04 µM)	normalised growth rate inhibition ([4]; 0.12 µM)	normalised growth rate inhibition ([4]; 0.37 µM)	normalised growth rate inhibition ([4]; 1.11 µM)	normalised growth rate inhibition ([4]; 3.33 µM)	normalised growth rate inhibition ([4]; 10 µM)	normalised growth rate inhibition ([5]; 0.04 µM)	normalised growth rate inhibition ([5]; 0.12 µM)	normalised growth rate inhibition ([5]; 0.37 µM)	normalised growth rate inhibition ([5]; 1.11 µM)	normalised growth rate inhibition ([5]; 3.33 µM)	normalised growth rate inhibition ([5]; 10 µM)	normalised growth rate inhibition ([6]; 0.04 µM)	normalised growth rate inhibition ([6]; 0.12 µM)	normalised growth rate inhibition ([6]; 0.37 µM)	normalised growth rate inhibition ([6]; 1.11 µM)	normalised growth rate inhibition ([6]; 3.33 µM)	normalised growth rate inhibition ([6]; 10 µM)
COc1cc(N2CCC(N3CCN(C)CC3)CC2)ccc1Nc1ncc(Cl)c(Nc2ccccc2S(=O)(=O)C(C)C)n1 [NVP-TAE684]	0.553 ± 0.22	0.133 ± 0.13	-0.0107 ± 0.12	-0.108 ± 0.053	-0.129 ± 0.021	-0.198 ± 0.18	0.908 ± 0.035	0.737 ± 0.11	0.694 ± 0.089	0.389 ± 0.14	0.117 ± 0.14	-0.228 ± 0.21	1.08 ± 0.047	0.782 ± 0.2	0.928 ± 0.069	0.691 ± 0.16	0.197 ± 0.2	-0.232 ± 0.068	0.889 ± 0.06	0.754 ± 0.19	0.647 ± 0.14	0.555 ± 0.12	0.429 ± 0.14	0.123 ± 0.1	0.885 ± 0.041	0.61 ± 0.098	0.609 ± 0.073	0.351 ± 0.11	0.111 ± 0.042	-0.201 ± 0.15	1.04 ± 0.012	0.776 ± 0.2	0.972 ± 0.088	0.829 ± 0.13	0.447 ± 0.3	0.133 ± 0.28
Cc1ncc(-c2ccnc(Nc3ccc(S(C)(=O)=O)cc3)n2)n1C(C)C [AZD-5438]	0.798 ± 0.13	0.373 ± 0.11	0.0311 ± 0.046	-0.106 ± 0.11	-0.277 ± 0.036	-0.438 ± 0.14	0.849 ± 0.1	0.633 ± 0.069	0.31 ± 0.071	-0.0453 ± 0.074	-0.205 ± 0.15	-0.308 ± 0.18	0.891 ± 0.036	0.628 ± 0.013	0.292 ± 0.086	-0.137 ± 0.12	-0.28 ± 0.15	-0.453 ± 0.2	0.958 ± 0.02	0.797 ± 0.087	0.42 ± 0.18	-0.0201 ± 0.058	-0.199 ± 0.24	-0.188 ± 0.19	0.908 ± 0.037	0.679 ± 0.063	0.274 ± 0.069	-0.0129 ± 0.054	-0.104 ± 0.095	-0.186 ± 0.093	0.884 ± 0.086	0.655 ± 0.14	0.354 ± 0.2	0.0675 ± 0.11	-0.117 ± 0.1	-0.372 ± 0.15
CC(=O)Nc1cccc(-n2c(=O)n(C3CC3)c(=O)c3c(Nc4ccc(I)cc4F)n(C)c(=O)c(C)c32)c1 [trametinib]	0.364 ± 0.029	0.365 ± 0.027	0.36 ± 0.011	0.387 ± 0.03	0.427 ± 0.0076	0.425 ± 0.013	0.0906 ± 0.041	0.129 ± 0.1	0.117 ± 0.072	0.11 ± 0.072	0.11 ± 0.082	0.128 ± 0.11	0.503 ± 0.17	0.607 ± 0.08	0.565 ± 0.14	0.613 ± 0.11	0.624 ± 0.12	0.631 ± 0.16	0.152 ± 0.076	0.178 ± 0.068	0.182 ± 0.083	0.202 ± 0.071	0.206 ± 0.058	0.231 ± 0.058	0.261 ± 0.05	0.203 ± 0.071	0.194 ± 0.091	0.186 ± 0.088	0.179 ± 0.075	0.198 ± 0.091	0.71 ± 0.046	0.78 ± 0.049	0.743 ± 0.047	0.717 ± 0.053	0.683 ± 0.019	0.762 ± 0.066
CS(=O)(=O)CCNCc1ccc(-c2ccc3ncnc(Nc4ccc(OCc5cccc(F)c5)c(Cl)c4)c3c2)o1 [lapatinib]	0.803 ± 0.12	0.872 ± 0.13	0.947 ± 0.074	0.936 ± 0.092	0.926 ± 0.051	0.321 ± 0.14	0.878 ± 0.033	0.9385 ± 0.0078	0.955 ± 0.01	0.948 ± 0.025	0.947 ± 0.011	0.62 ± 0.11	0.0194 ± 0.093	-0.00655 ± 0.072	-0.0149 ± 0.1	-0.0045 ± 0.12	0.00322 ± 0.13	0.133 ± 0.035	0.975 ± 0.029	0.957 ± 0.034	0.943 ± 0.047	0.895 ± 0.075	0.747 ± 0.16	0.288 ± 0.17	0.982 ± 0.025	0.9754 ± 0.0072	0.976 ± 0.019	0.985 ± 0.015	1.01 ± 0.027	0.636 ± 0.14	0.857 ± 0.091	0.957 ± 0.075	0.965 ± 0.053	0.991 ± 0.062	0.958 ± 0.11	0.749 ± 0.15
COc1ccc(-c2ccc3c(N4CCOC[C@@H]4C)nc(N4CCOC[C@@H]4C)nc3n2)cc1CO [AZD-8055]	0.0296 ± 0.035	-0.00352 ± 0.044	-0.0152 ± 0.064	-0.00932 ± 0.072	-0.0344 ± 0.067	-0.216 ± 0.23	0.484 ± 0.046	0.317 ± 0.048	0.245 ± 0.0043	0.224 ± 0.015	0.146 ± 0.099	-0.0657 ± 0.25	-0.0402 ± 0.13	-0.0898 ± 0.17	-0.0997 ± 0.15	-0.12 ± 0.1	-0.137 ± 0.12	-0.363 ± 0.15	0.494 ± 0.1	0.296 ± 0.088	0.205 ± 0.048	0.175 ± 0.027	0.146 ± 0.012	-0.102 ± 0.39	0.255 ± 0.041	0.187 ± 0.031	0.176 ± 0.022	0.16 ± 0.023	0.111 ± 0.073	-0.22 ± 0.29	0.3 ± 0.14	0.179 ± 0.12	0.0816 ± 0.063	0.0556 ± 0.071	-0.00646 ± 0.086	-0.306 ± 0.36
CN1CCN(c2ccc3nc(-c4c(N)c5c(F)cccc5[nH]c4=O)[nH]c3c2)CC1 [dovitinib]	0.898 ± 0.047	0.862 ± 0.079	0.678 ± 0.14	0.554 ± 0.19	0.379 ± 0.17	0.304 ± 0.1	0.903 ± 0.11	0.817 ± 0.14	0.534 ± 0.1	0.451 ± 0.12	0.343 ± 0.068	0.23 ± 0.099	0.711 ± 0.12	0.659 ± 0.066	0.497 ± 0.062	0.474 ± 0.081	0.275 ± 0.04	0.142 ± 0.045	0.962 ± 0.032	0.893 ± 0.046	0.599 ± 0.098	0.368 ± 0.18	0.146 ± 0.085	0.0253 ± 0.033	0.791 ± 0.047	0.562 ± 0.035	0.3 ± 0.083	0.271 ± 0.097	0.283 ± 0.079	0.254 ± 0.16	0.83 ± 0.047	0.685 ± 0.11	0.394 ± 0.13	0.304 ± 0.072	0.219 ± 0.034	0.156 ± 0.12
